Test results reported in ChEMBL document CHEMBL4130359, “Indazole-based ligands for estrogen-related receptor α as potential anti-diabetic agents” (Eur J Med Chem, 2017).
Calls of active or inactive are those of the source. The calls are words filed in the database; no cut-off is given here.

Experiments:
[1] = target: T1, Steroid hormone receptor ERR1 (Homo sapiens, UniProt P11474); experiment: Antagonist activity at His6-tagged ERRalpha LBD (unknown origin) assessed as inhibition of GST-tagged SRC-2 co-activator peptide recruitment after 18 hrs by TR-FRET assay
T1 sequence (P11474 whole entry): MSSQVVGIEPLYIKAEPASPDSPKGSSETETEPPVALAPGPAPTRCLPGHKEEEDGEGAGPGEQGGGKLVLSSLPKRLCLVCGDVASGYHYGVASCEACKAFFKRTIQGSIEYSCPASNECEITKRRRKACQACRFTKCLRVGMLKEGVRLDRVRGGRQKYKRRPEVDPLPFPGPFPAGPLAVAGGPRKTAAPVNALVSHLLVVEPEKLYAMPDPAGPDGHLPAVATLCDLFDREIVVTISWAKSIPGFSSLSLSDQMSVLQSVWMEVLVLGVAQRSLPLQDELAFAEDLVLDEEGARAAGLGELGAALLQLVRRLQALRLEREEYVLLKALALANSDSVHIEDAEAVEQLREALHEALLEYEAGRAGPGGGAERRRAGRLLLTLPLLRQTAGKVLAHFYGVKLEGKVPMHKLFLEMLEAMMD

[2] = tested on: Rattus norvegicus; experiment: Antidiabetic activity in Zucker rat sub-chronic fa/fa prediabetic model assessed as decrease in plasma glucose AUC (0 to 120 mins) at 10 mg/kg, po qd during 10 days study by OGTT relative to control; format: functional; set-up: scale not given: the % may be the effect or the level left
[3] = tested on: Rattus norvegicus; experiment: Antidiabetic activity in Zucker rat sub-chronic fa/fa prediabetic model assessed as fasting blood glucose level at 1 mg/kg, po qd for 31 days measured on day 29 post dose (reference value: 163 +/- 9.2 mg/dl); format: functional
[4] = tested on: Rattus norvegicus; experiment: Antidiabetic activity in Zucker rat sub-chronic fa/fa prediabetic model assessed as fasting blood glucose level at 50 mg/kg, po qd for 31 days measured on day 29 post dose (reference value: 163 +/- 9.2 mg/dl); format: functional
[5] = tested on: Rattus norvegicus; experiment: Toxicity in Zucker rat sub-chronic fa/fa prediabetic model assessed as food intake at 3 mg/kg, po qd for 29 days measured on day 1 to 29 during compound dosing (reference value: 969 +/- 18 g); format: organism-based; details: in vivo, 696 h
[6] = tested on: Rattus norvegicus; experiment: Toxicity in Zucker rat sub-chronic fa/fa prediabetic model assessed as food intake at 10 mg/kg, po qd for 29 days measured on day 1 to 29 during compound dosing (reference value: 969 +/- 18 g); format: organism-based; details: in vivo, 696 h
[7] = tested on: Rattus norvegicus; experiment: Toxicity in Zucker rat sub-chronic fa/fa prediabetic model assessed as heart weight at 10 mg/kg, po qd for 31 days measured on day 32 (reference value: 1.19 +/- 0.04 g); format: organism-based; details: in vivo, 744 h
[8] = tested on: Rattus norvegicus; experiment: Toxicity in Zucker rat sub-chronic fa/fa prediabetic model assessed as triglyceride level per gram liver at 10 mg/kg, po qd for 31 days measured on day 32 (reference value: 163.4 +/- 8.3 mg); format: organism-based; details: in vivo, 744 h
[9] = tested on: Rattus norvegicus; experiment: Toxicity in Zucker rat sub-chronic fa/fa prediabetic model assessed as serum ALT level at 10 mg/kg, po qd for 31 days measured on day 32 (reference value: 151 +/- 23 U/L); format: organism-based; details: in vivo, 744 h
[10] = tested on: Rattus norvegicus; experiment: Toxicity in Zucker rat sub-chronic fa/fa prediabetic model assessed as serum BUN level at 50 mg/kg, po qd for 31 days measured on day 32 (reference value: 28.3 +/- […]); format: organism-based; details: in vivo, 744 h
[11] = tested on: Rattus norvegicus; format: functional, Zucker
[12] = tested on: Rattus norvegicus; format: functional, Zucker; remark: listed apart in the source
[13] = Cmax in […] chronic ob/ob model at 50 mg/kg, po qd measured on day 1 post dose; format: ADME, organism-based; set-up: dose 50 mg/kg, route oral; details: in vivo
[14] = AUC (0 to 24 hrs) in […] model at 3 mg/kg, po qd measured on day 1 post dose; format: ADME, organism-based; set-up: dose 3 mg/kg, time < 24 hr, route oral; details: in vivo
[15] = tested on: Rattus norvegicus; experiment: Toxicity in […] chronic ob/ob model assessed as brown adipose tissue weight at 3 mg/kg, po qd for 31 days measured on day 32 (reference value: 0.59 +/- 0.05 g); format: organism-based; details: in vivo, 744 h
[16] = tested on: Rattus norvegicus; experiment: Toxicity in […] model assessed as serum cholesterol level at 3 mg/kg, po qd for 31 days measured on day 32 (reference value: 195 +/- 5.5 mg/dl); format: organism-based; details: in vivo, 744 h
[17] = tested on: Rattus norvegicus; experiment: Toxicity in […] model assessed as serum ALT level at 50 mg/kg, po qd for 31 days measured on day 32 (reference value: 127 +/- 9 U/L); format: organism-based; details: in vivo, 744 h
[18] = tested on: Rattus norvegicus; experiment: Increase in IDH3A mRNA expression in epididymal white adipose tissue of Zucker rat sub-chronic fa/fa prediabetic model at 10 mg/kg, po qd for 15 days by RT-PCR method; format: functional, organism-based
[19] = tested on: Rattus norvegicus; experiment: Effect on NDUFA12 gene expression in epididymal white adipose tissue of Zucker rat sub-chronic fa/fa prediabetic model at 10 mg/kg, po qd for 15 days by microarray analysis relative to control; format: functional
[20] = tested on: Rattus norvegicus; experiment: Effect on ECI2 gene expression in epididymal white adipose tissue of Zucker rat sub-chronic fa/fa prediabetic model at 10 mg/kg, po qd for 15 days by microarray analysis relative to control; format: functional
[21] = tested on: Rattus norvegicus; experiment: Effect on PIK3R6 gene expression in epididymal white adipose tissue of Zucker rat sub-chronic fa/fa prediabetic model at 10 mg/kg, po qd for 15 days by microarray analysis relative to control; format: functional
[22] = tested on: Rattus norvegicus; experiment: Effect on PRKCD gene expression in epididymal white adipose tissue of Zucker rat sub-chronic fa/fa prediabetic model at 10 mg/kg, po qd for 15 days by microarray analysis relative to control; format: functional
[23] = tested on: Rattus norvegicus; experiment: Effect on BAD gene expression in epididymal white adipose tissue of Zucker rat sub-chronic fa/fa prediabetic model at 10 mg/kg, po qd for 15 days by microarray analysis relative to control; format: functional
[24] = tested on: Rattus norvegicus; experiment: Effect on AGPAT3 gene expression in epididymal white adipose tissue of Zucker rat sub-chronic fa/fa prediabetic model at 10 mg/kg, po qd for 15 days by microarray analysis relative to control; format: functional
[25] = tested on: Rattus norvegicus; experiment: Effect on NR1H3 gene expression in epididymal white adipose tissue of Zucker rat sub-chronic fa/fa prediabetic model at 10 mg/kg, po qd for 15 days by microarray analysis relative to control; format: functional
[26] = tested on: Rattus norvegicus; experiment: Effect on ECSIT gene expression in epididymal white adipose tissue of Zucker rat sub-chronic fa/fa prediabetic model at 10 mg/kg, po qd for 15 days by microarray analysis relative to control; format: functional
[27] = tested on: Rattus norvegicus; experiment: Effect on IMPA2 gene expression in epididymal white adipose tissue of Zucker rat sub-chronic fa/fa prediabetic model at 10 mg/kg, po qd for 15 days by microarray analysis relative to control; format: functional
[28] = tested on: Rattus norvegicus; experiment: Effect on GHR gene expression in epididymal white adipose tissue of Zucker rat sub-chronic fa/fa prediabetic model at 10 mg/kg, po qd for 15 days by microarray analysis relative to control; format: functional
[29] = tested on: Rattus norvegicus; experiment: Effect on HLA-DRB1 gene expression in epididymal white adipose tissue of Zucker rat sub-chronic fa/fa prediabetic model at 10 mg/kg, po qd for 15 days by microarray analysis relative to control; format: functional

SMILES: CN1CC[C@@H](N2C(=O)S/C(=C\c3ccc4c(cnn4Cc4ccc(Cl)cc4C(F)(F)F)c3)C2=O)[C@H](F)C1
- IC50 [1]: 23 nM
- Activity [2]: -46%
- Activity [3]: 123 mg/dL
- Activity [4]: 105 mg/dL
- Activity [5]: 1067 g
- Activity [6]: 1060 g
- Activity [7]: 1.11 g
- Activity [8]: 93 mg
- Activity [9]: 122 U/L
- Activity [10]: 23.9 mg/dL
- Activity [11]: 17.3%
- Activity [12]: 134 mg/dL
- Cmax [13]: 2680 ng/mL
- AUC(0-t) at 24 h [14]: 1400 ng·h/mL
- Activity [15]: 0.61 g
- Activity [16]: 171 mg/dL
- Activity [17]: 149 U/L
- Activity [18]: Active
- fold change (FC) [19]: 1.252
- fold change (FC) [20]: 1.453
- fold change (FC) [21]: -1.276
- fold change (FC) [22]: -1.615
- fold change (FC) [23]: -1.216
- fold change (FC) [24]: -1.213
- fold change (FC) [25]: 1.389
- fold change (FC) [26]: 1.339
- fold change (FC) [27]: 1.526
- fold change (FC) [28]: 1.276
- fold change (FC) [29]: -1.334
